Reference: patent publication US12145947B2, “Pyrimidine based modulators and uses thereof” (Quanta Therapeutics, Inc., priority 2022, dated 2024)

biological target: T1, GST-tagged KRAS-G12D (2-169) (Homo sapiens, UniProt P01116, G12D); test: Nucleotide exchange assay (NEA), SOS-mediated, HTRF, KRAS G12D; format: biochemical; details: Table 4; IC50 extracted at 30 min
T1 construct: GST-tagged KRAS-G12D (2-169, Reaction Biology, MSC-11-539); purchased Reaction Biology MSC-11-539 (KRAS G12D); MSC-11-502 (SOS1cat)
T1 sequence (P01116 2-169 isoform P01116-2 G12D): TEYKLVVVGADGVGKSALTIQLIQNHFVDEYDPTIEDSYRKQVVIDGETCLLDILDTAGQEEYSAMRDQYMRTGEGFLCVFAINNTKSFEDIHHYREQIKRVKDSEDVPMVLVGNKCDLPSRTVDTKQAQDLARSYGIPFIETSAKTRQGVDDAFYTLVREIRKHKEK
From the text: This activity is tightly regulated by GTPase activating proteins (GAPs) and guanine nucleotide exchange factors (GEFs). GEFs, such as SOS1/2, activate Ras proteins by exchanging GDP for GTP, thus returning Ras to its active conformation (Simanshu, Nissley, & McCormick, 2017). […] Homogenous time resolved fluorescence (HTRF) was used to detect SOS-mediated binding of a fluorescent GTP analog, GTP-DY-647P1 (Jena Biosciences NU-820-647P1) to GST-tagged KRAS-G12D (2-169, Reaction Biology, MSC-11-539) or to GST-tagged KRAS-G12V (2-169, Reaction Biology, MSC-11-540).
GST-tagged KRAS-G12D (2-169) and anti-GST MAb Tb Cryptate Gold (CisBio 61GSTTLB) were diluted into assay buffer (20 mM HEPES, pH 7.3, 150 mM NaCl, 5 mM MgCl2, 0.05% BSA 0.0025% NP40, 1 mM DTT) to prepare a 2.5× donor solution. 5× compound was added to the protein mixture and incubated for 1 h at RT. 2.5× acceptor solution containing SOSIcat (564-1049, Reaction Biology MSC-11-502) and GTP-DY-647P1 were then added to the donor KRAS mixture such that the final concentration of the reaction contained 5 nM GST-tagged KRAS-G12D (2-169), 20 nM SOScat, and 150 nM GTP. The reaction was monitored using at RT with the Envision multimode plate reader (Ex/Em 337/665, […]) up to 90 minutes at 5 minute intervals. To monitor KRAS-G12V Sos-mediated nucleotide exchange, 80 nM SOS was added to reaction instead of 20 nM. All other components were the same as previously described. Data was blanked to reactions without SOS1 and % inhibition was calculated such that DMSO only=0% and blank=100%. Curve fitting was done using a 4 parameter fit. Reported IC50 values were extracted at 30 min and 90 min for the KRAS-G12D and KRAS-G12V assays, respectively.
Curve fitting was done using a 4 parameter fit. NEA KRAS G12D IC50 (uM) values of selected compounds are depicted in Table 2 with compounds having a value <0.01 uM as ++++; >0.01 uM to 0.1 uM as +++; >0.1 uM to 1 uM as ++; >1 uM to 20 uM as +; and >20 uM as NA.

SMILES | IC50 [nM]
N#Cc1c(N2CCSc3ncccc3C2)nc(OC[C@@]23CCCN2C[C@H](F)C3)nc1N1CC2(CCc3sc(N)c(C#N)c32)C1 [Compound 111, 2-amino-1′-[5-cyano-6-(3,5-dihydro-2H-pyrido[3,2-f][1,4]thiazepin-4-yl)-2-[[(2R,8S)-2-fluoro-1,2,3,5,6,7-hexahydropyrrolizin-8-yl]methoxy]pyrimidin-4-yl]spiro[5,6-dihydrocyclopenta[b]thiophene-4,3′-azetidine]-3-carbonitrile] | 10 to 100
N#Cc1c(N2CCCOCC2)nc(OC[C@@]23CCCN2C[C@H](F)C3)nc1N1CC2(CCc3sc(N)c(C#N)c32)C1 [Compound 110, 2-amino-1′-[5-cyano-2-[[(2R,8S)-2-fluoro-1,2,3,5,6,7-hexahydropyrrolizin-8-yl]methoxy]-6-(1,4-oxazepan-4-yl)pyrimidin-4-yl]spiro[5,6-dihydrocyclopenta[b]thiophene-4,3′-azetidine]-3-carbonitrile] | 10 to 100
N#Cc1c(N2C[C@H]3CC[C@@H](C2)N3)nc(OCc2n[nH]cc2C(F)F)nc1N1CC2(CCc3sc(N)c(C#N)c32)C1 [Compound 109, 2-amino-1′-[5-cyano-6-[(1R,5S)-3,8-diazabicyclo[3.2.1]octan-3-yl]-2-[[4-(difluoromethyl)-1H-pyrazol-3-yl]methoxy]pyrimidin-4-yl]spiro[5,6-dihydrocyclopenta[b]thiophene-4,3′-azetidine]-3-carbonitrile] | 10 to 100
